Each compound was assayed against T1, Human CYP2C8 (Homo sapiens, UniProt P10632) (assay: Inhibitory activity of drug-metabolizing enzyme (human CYP2C8 inhibition effect)). Conditions: E. coli-expressed CYP2C8, substrate Luciferin-ME, from inhibition rates at 1 and 10 μmol/L.
T1 construct: E. coli-expressed liver microsome CYP2C8 (Cypex, 30 μmol/L); purchased Cypex; host or cells: E. coli
T1 sequence (P10632 1-490): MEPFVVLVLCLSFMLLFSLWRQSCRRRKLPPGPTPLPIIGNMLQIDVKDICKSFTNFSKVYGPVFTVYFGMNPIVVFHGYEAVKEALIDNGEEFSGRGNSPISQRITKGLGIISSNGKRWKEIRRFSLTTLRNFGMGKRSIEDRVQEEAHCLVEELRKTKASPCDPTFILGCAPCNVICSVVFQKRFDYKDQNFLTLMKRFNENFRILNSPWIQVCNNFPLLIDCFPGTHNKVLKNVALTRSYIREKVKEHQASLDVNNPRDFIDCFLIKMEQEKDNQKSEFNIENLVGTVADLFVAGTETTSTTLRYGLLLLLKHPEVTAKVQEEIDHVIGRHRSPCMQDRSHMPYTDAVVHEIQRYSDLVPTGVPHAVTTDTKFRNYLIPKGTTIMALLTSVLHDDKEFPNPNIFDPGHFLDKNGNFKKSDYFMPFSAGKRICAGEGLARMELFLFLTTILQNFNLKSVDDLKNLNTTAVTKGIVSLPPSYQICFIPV
Format: in vitro ADME
Method: Biological Example 4: Measurement of Inhibitory Activity of Drug-Metabolizing Enzyme (Human CYP2C8 Inhibition Effect)
The reaction was carried out in a 384-well plate. As the positive control substance (CYP2C8: quercetin), a solution, which had been adjusted with DMSO to have 300 times higher concentration than the final concentration (CYP2C8: 22.5 and 225 μmol/L) and been 75-fold diluted with purified water containing 2.7% acetonitrile, was prepared (CYP2C8: 0.3 and 3 μmol/L). The test compounds were prepared to have a concentration of […] with DMSO, and then 75-fold diluted with purified water containing 2.7% acetonitrile to be 4 and 40 μmol/L. Then, a reaction mixture solution was prepared by addition of a potassium phosphate buffer (pH 7.4), magnesium chloride ([…]), substrate (CYP2C8: Luciferin-ME, 150 μmol/L), and E. coli-expressed liver microsome CYP2C8 (Cypex, 30 μmol/L) (the numerical values are final concentrations). The reaction was started by addition of 8 μL of this reaction mixture, 4 μL each of the test compound and the positive control solution which had been prepared as described above, and 4 μL of NADPH production system solution (5.2 mM NADP, 13.2 mM glucose-6-phosphate, 1.6 U/mL glucose-6-phosphate dehydrogenase) and incubation was carried out at 37° C. for 30 min. Thereafter, 16 μL of luciferase solution was added to stop the reaction and to allow luciferin to emit light, and the luminescence intensity of the reaction solution was measured. The inhibition rate is a reduction rate (inhibition rate) of the luminescence intensity when compared with the control in which the reaction was carried out by the addition of DMSO in place of the test compound solution. The inhibition rate was calculated from the following mathematical formula. Inhibition rate (%)=100−{(luminescence intensity of test compound−background luminescence intensity)/(luminescence intensity of control−background luminescence intensity)×100} [Math. 3]
The IC50 value was defined to be <1 μM when the inhibition rate at 1 μmol/L was not less than 50%; and >10 μM when the inhibition rate at 10 μmol/L was not more than 50%. The range between the above-mentioned range (not more than 50% at 1 μmol/L and not less than 50% at 10 μmol/L) was calculated using the following mathematical formula: IC50=(50−b)/a [Math.4] wherein a and b are the slope and intercept of the linear regression line: y=ax+b that passes through the two points: the concentration and the inhibition rate at 1 μmol/L and the concentration and the inhibition rate at 10 μmol/L.
The IC50 values of the comparative compounds and compounds of the present invention were measured using the measurement method described above.
`COc1cc2nccc(Oc3ccc(NC(=O)c4cc5c(n(-c6ccccc6)c4=O)CC(C)(C)CC5=O)nc3)c2cc1OC` [Example 5(1), N-{5-[(6,7-dimethoxy-4-quinolinyl)oxy]-2-pyridinyl}-7,7-dimethyl-2,5-dioxo-1-phenyl-1,2,5,6,7,8-hexahydro-3-quinolinecarboxamide] was tested, and the IC50 was > 10 µM. For `COc1cc2nccc(Oc3ccc(NC(=O)c4cc5c(n(-c6ccccc6)c4=O)CCCC5=O)nc3)c2cc1OC` [Example 5, N-{5-[(6,7-dimethoxy-4-quinolinyl)oxy]-2-pyridinyl}-2,5-dioxo-1-phenyl-1,2,5,6,7,8-hexahydro-3-quinolinecarboxamide], the IC50 was > 10 µM. With `O=C1CCCc2c1cc(C(=O)Nc1ccc(Oc3ccnc4cc(OCCCN5CCOCC5)ccc34)cn1)c(=O)n2-c1ccccc1` [Example 17(2), N-[5-({7-[3-(4-morpholinyl)propoxy]-4-quinolinyl}oxy)-2-pyridinyl]2,5-dioxo-1-phenyl-1,2,5,6,7,8-hexahydro-3-quinolinecarboxamide] the IC50 was > 10 µM. With `COc1cc2nccc(Oc3ccc(NC(=O)c4cc5c(n(-c6ccccc6)c4=O)CCCC5=O)c(C)c3)c2cc1OC` [Example 23(2), N-{4-[(6,7-dimethoxy-4-quinolinyl)oxy]-2-methylphenyl}-2,5-dioxo-1-phenyl-1,2,5,6,7,8-hexahydro-3-quinolinecarboxamide] the IC50 was > 10 µM.
